“And” between values parts separate entries of the source, which are not always exact repeats. Equal values may be shown once. Read-outs that look alike come from different tables or passages of the source.
Legend:
E. coli AG100 [1] = assay: Membrane permeability assay (Live/Dead BacLight)
E. coli AG100 [2] = assay: Checkerboard synergy assay (MIC of antibiotics/EtBr with efflux inhibitor); type: cell-based, Escherichia coli; settings: for MIC: Escherichia coli
Procedure: (§1) The assays were performed in triplicate and the MIC value was given as result of at least two concordant values.

E. coli AG100 [3] = assay: EtBr accumulation by real-time fluorometry; settings: EtBr 1 µg/ml + inhibitor 80 µM
E. coli AG100tet [4] = assay: microbe, parasite or virus in culture; type: cell-based, Escherichia coli; settings: Escherichia coli, AG100TET
Procedure: as §1

E. coli AG100 [5] = assay: Membrane potential assay (BacLight, DiOC2(3)); settings: 80 µM
E. coli AG100tet [6] = assay: EtBr accumulation by real-time fluorometry; settings: EtBr 2 µg/ml + inhibitor 80 µM
E. coli AG100A = settings: EtBr […] + inhibitor 20 µM

`CN(C)CCCN1c2ccccc2Sc2ccc(Cl)cc21` [CPZ, chlorpromazine] was tested, and the “BacLight Live/Dead fluorescence 485/20,528/20” value (E. coli AG100 [1]; 80 uM, raw well reading) was 104 and 88, the “BacLight Live/Dead fluorescence 485/20,590/35” value (E. coli AG100 [1]; 80 uM, raw well reading) was 30 and 24 and the “membrane permeability increase / membrane permeation” value (E. coli AG100 [1]; AG100, 80 µM) was 18%. The “MIC of OFX in presence of the efflux inhibitor” value (E. coli AG100 [2]; AG100, inhibitor 80 μM) was 0.125 µg/mL, the “MIC of OXA in presence of the efflux inhibitor” value (E. coli AG100 [2]; AG100, inhibitor 80 μM) was 512 µg/mL and the MIC (E. coli AG100 [2]; AG100, AG100, inhibitor 160 μM, read-out: MIC of OXA in presence of the efflux inhibitor) was ≤ 1 µg/mL. The MIC (E. coli AG100 [2]; AG100, read-out: MIC of EtBr in presence of the efflux inhibitor) was 25 µg/mL, the MIC (E. coli AG100 [2]; AG100, read-out: MIC of EtBr in presence of the efflux inhibitor, AG100, inhibitor 40 μM) was 100 µg/mL and the MIC (E. coli AG100 [2]; AG100, read-out: MIC of EtBr in presence of the efflux inhibitor, AG100, inhibitor 160 μM) was ≤ 0.39 µg/mL. The MIC (E. coli AG100 [2]; AG100, read-out: MIC of OFX in presence of the efflux inhibitor) was 0.125 µg/mL, the MIC (E. coli AG100 [2]; AG100, read-out: MIC of OFX in presence of the efflux inhibitor, AG100, inhibitor 160 μM) was 0.003 µg/mL and the MIC (E. coli AG100 [2]; AG100, read-out: MIC of OXA in presence of the efflux inhibitor) was 512 µg/mL. For the same compound, the MIC (E. coli AG100 [2]; AG100, read-out: MIC of TET in presence of the efflux inhibitor, AG100, inhibitor 40 μM) was 1 µg/mL, the MIC (E. coli AG100 [2]; AG100, read-out: MIC of TET in presence of the efflux inhibitor, AG100, inhibitor 80 μM) was 0.5 µg/mL and the MIC (E. coli AG100 [2]; AG100, read-out: MIC of TET in presence of the efflux inhibitor, AG100, inhibitor 160 μM) was ≤ 0.03 µg/mL. It also gave an EtBr fluorescence (E. coli AG100 [3]; cycle 1) of 6.13, an EtBr fluorescence (E. coli AG100 [3]; cycle 2) of 8.192 and an EtBr fluorescence (E. coli AG100 [3]; cycle 3) of 10.0781. It also gave an EtBr fluorescence (E. coli AG100 [3]; cycle 4) of 12.1665, an EtBr fluorescence (E. coli AG100 [3]; cycle 5) of 14.1022 and an EtBr fluorescence (E. coli AG100 [3]; cycle 6) of 16.1694. The EtBr fluorescence (E. coli AG100 [3]; cycle 7) was 18.3713, the EtBr fluorescence (E. coli AG100 [3]; cycle 8) was 20.6676 and the EtBr fluorescence (E. coli AG100 [3]; cycle 9) was 22.7314. The EtBr fluorescence (E. coli AG100 [3]; cycle 10) was 24.8681, the EtBr fluorescence (E. coli AG100 [3]; cycle 11) was 27.4474 and the EtBr fluorescence (E. coli AG100 [3]; cycle 12) was 29.5933. The EtBr fluorescence (E. coli AG100 [3]; cycle 13) was 31.7973, the EtBr fluorescence (E. coli AG100 [3]; cycle 14) was 34.5154 and the EtBr fluorescence (E. coli AG100 [3]; cycle 15) was 36.8928. The EtBr fluorescence (E. coli AG100 [3]; cycle 16) was 39.2786, the EtBr fluorescence (E. coli AG100 [3]; cycle 17) was 41.9426 and the EtBr fluorescence (E. coli AG100 [3]; cycle 18) was 44.0663. For the same compound, the EtBr fluorescence (E. coli AG100 [3]; cycle 19) was 46.4485, the EtBr fluorescence (E. coli AG100 [3]; cycle 20) was 49.5818 and the EtBr fluorescence (E. coli AG100 [3]; cycle 21) was 51.5786. The EtBr fluorescence (E. coli AG100 [3]; cycle 22) was 54.5618, the EtBr fluorescence (E. coli AG100 [3]; cycle 23) was 56.7461 and the EtBr fluorescence (E. coli AG100 [3]; cycle 24) was 59.3586. The EtBr fluorescence (E. coli AG100 [3]; cycle 25) was 62.2682, the EtBr fluorescence (E. coli AG100 [3]; cycle 26) was 64.3897 and the EtBr fluorescence (E. coli AG100 [3]; cycle 27) was 67.0371. It also gave an EtBr fluorescence (E. coli AG100 [3]; cycle 28) of 69.6952, an EtBr fluorescence (E. coli AG100 [3]; cycle 29) of 72.3896 and an EtBr fluorescence (E. coli AG100 [3]; cycle 30) of 75.3315. It also gave an MIC (E. coli AG100tet [4]; read-out: MIC of EtBr in presence of the efflux inhibitor, AG100tet, inhibitor 40 μM) of 256 µg/mL, an MIC (E. coli AG100tet [4]; read-out: MIC of EtBr in presence of the efflux inhibitor, AG100tet, inhibitor 80 μM) of 128 µg/mL and an MIC (E. coli AG100tet [4]; read-out: MIC of EtBr in presence of the efflux inhibitor, AG100tet, inhibitor 160 μM) of 128 µg/mL. The MIC (E. coli AG100tet [4]; read-out: MIC of OFX in presence of the efflux inhibitor, AG100tet, inhibitor 40 μM) was 0.5 µg/mL, the MIC (E. coli AG100tet [4]; read-out: MIC of OFX in presence of the efflux inhibitor, AG100tet, inhibitor 80 μM) was 0.5 µg/mL and the MIC (E. coli AG100tet [4]; read-out: MIC of OFX in presence of the efflux inhibitor, AG100tet, inhibitor 160 μM) was 0.25 µg/mL. The MIC (E. coli AG100tet [4]; read-out: MIC of OXA in presence of the efflux inhibitor, AG100tet, inhibitor 40 μM) was > 2050 µg/mL, the MIC (E. coli AG100tet [4]; read-out: MIC of OXA in presence of the efflux inhibitor, AG100tet, inhibitor 80 μM) was 2050 µg/mL and the MIC (E. coli AG100tet [4]; read-out: MIC of OXA in presence of the efflux inhibitor, AG100tet, inhibitor 160 μM) was 1020 µg/mL. The MIC (E. coli AG100tet [4]; read-out: MIC of TET in presence of the efflux inhibitor, AG100tet, inhibitor 40 μM) was 32 µg/mL, the MIC (E. coli AG100tet [4]; read-out: MIC of TET in presence of the efflux inhibitor, AG100tet, inhibitor 80 μM) was 32 µg/mL and the MIC (E. coli AG100tet [4]; read-out: MIC of TET in presence of the efflux inhibitor, AG100tet, inhibitor 160 μM) was 16 µg/mL. For the same compound, the membrane depolarization (E. coli AG100 [5]) was “similarly to that caused by PQQ4R”, the EtBr fluorescence (E. coli AG100tet [6]; cycle 1) was 9.834 and the EtBr fluorescence (E. coli AG100tet [6]; cycle 2) was 10.8502. The EtBr fluorescence (E. coli AG100tet [6]; cycle 3) was 12.3051, the EtBr fluorescence (E. coli AG100tet [6]; cycle 4) was 13.857 and the EtBr fluorescence (E. coli AG100tet [6]; cycle 5) was 15.5494. For the same compound, the EtBr fluorescence (E. coli AG100tet [6]; cycle 6) was 17.3058, the EtBr fluorescence (E. coli AG100tet [6]; cycle 7) was 19.3992 and the EtBr fluorescence (E. coli AG100tet [6]; cycle 8) was 20.8092. The EtBr fluorescence (E. coli AG100tet [6]; cycle 9) was 23.1444, the EtBr fluorescence (E. coli AG100tet [6]; cycle 10) was 25.4323 and the EtBr fluorescence (E. coli AG100tet [6]; cycle 11) was 27.4946. For the same compound, the EtBr fluorescence (E. coli AG100tet [6]; cycle 12) was 29.7214, the EtBr fluorescence (E. coli AG100tet [6]; cycle 13) was 31.9876 and the EtBr fluorescence (E. coli AG100tet [6]; cycle 14) was 34.2074. It also gave an EtBr fluorescence (E. coli AG100tet [6]; cycle 15) of 36.9702, an EtBr fluorescence (E. coli AG100tet [6]; cycle 16) of 39.6127 and an EtBr fluorescence (E. coli AG100tet [6]; cycle 17) of 42.5123. For the same compound, the EtBr fluorescence (E. coli AG100tet [6]; cycle 18) was 45.4508, the EtBr fluorescence (E. coli AG100tet [6]; cycle 19) was 48.5847 and the EtBr fluorescence (E. coli AG100tet [6]; cycle 20) was 50.7436. It also gave an EtBr fluorescence (E. coli AG100tet [6]; cycle 21) of 54.1808, an EtBr fluorescence (E. coli AG100tet [6]; cycle 22) of 57.0724 and an EtBr fluorescence (E. coli AG100tet [6]; cycle 23) of 59.5808. It also gave an EtBr fluorescence (E. coli AG100tet [6]; cycle 24) of 63.2028, an EtBr fluorescence (E. coli AG100tet [6]; cycle 25) of 66.0088 and an EtBr fluorescence (E. coli AG100tet [6]; cycle 26) of 69.6637. It also gave an EtBr fluorescence (E. coli AG100tet [6]; cycle 27) of 72.1, an EtBr fluorescence (E. coli AG100tet [6]; cycle 28) of 75.2829 and an EtBr fluorescence (E. coli AG100tet [6]; cycle 29) of 78.0686. It also gave an EtBr fluorescence (E. coli AG100tet [6]; cycle 30) of 80.8335, an EtBr fluorescence (E. coli AG100A; cycle 1) of 2.607 and an EtBr fluorescence (E. coli AG100A; cycle 2) of 3.106. The EtBr fluorescence (E. coli AG100A; cycle 3) was 3.464, the EtBr fluorescence (E. coli AG100A; cycle 4) was 4.013 and the EtBr fluorescence (E. coli AG100A; cycle 5) was 4.508. The EtBr fluorescence (E. coli AG100A; cycle 6) was 5.005, the EtBr fluorescence (E. coli AG100A; cycle 7) was 5.439 and the EtBr fluorescence (E. coli AG100A; cycle 8) was 6.027. It also gave an EtBr fluorescence (E. coli AG100A; cycle 9) of 6.585, an EtBr fluorescence (E. coli AG100A; cycle 10) of 7.2591 and an EtBr fluorescence (E. coli AG100A; cycle 11) of 7.711. For the same compound, the EtBr fluorescence (E. coli AG100A; cycle 12) was 8.1901, the EtBr fluorescence (E. coli AG100A; cycle 13) was 9.033 and the EtBr fluorescence (E. coli AG100A; cycle 14) was 9.4255. The EtBr fluorescence (E. coli AG100A; cycle 15) was 10.1045, the EtBr fluorescence (E. coli AG100A; cycle 16) was 10.9436 and the EtBr fluorescence (E. coli AG100A; cycle 17) was 11.4479. For the same compound, the EtBr fluorescence (E. coli AG100A; cycle 18) was 12.2134, the EtBr fluorescence (E. coli AG100A; cycle 19) was 12.6889 and the EtBr fluorescence (E. coli AG100A; cycle 20) was 13.2115. The EtBr fluorescence (E. coli AG100A; cycle 21) was 13.9156, the EtBr fluorescence (E. coli AG100A; cycle 22) was 14.6607 and the EtBr fluorescence (E. coli AG100A; cycle 23) was 15.4189. It also gave an EtBr fluorescence (E. coli AG100A; cycle 24) of 16.1017, an EtBr fluorescence (E. coli AG100A; cycle 25) of 16.6199 and an EtBr fluorescence (E. coli AG100A; cycle 26) of 17.3366. For the same compound, the EtBr fluorescence (E. coli AG100A; cycle 27) was 18.2879, the EtBr fluorescence (E. coli AG100A; cycle 28) was 18.7671 and the EtBr fluorescence (E. coli AG100A; cycle 29) was 19.416. For the same compound, the EtBr fluorescence (E. coli AG100A; cycle 30) was 19.8456.

From paper PMC5433425 (PeerJ, 2017)
